The values that follow are results of earlier work, collected in patent US20140366440A1, “METHOD FOR PRODUCING CLONE SEEDLINGS” (OKAYAMA PREFECTURE, priority 2009, published 2014).

Data set [1] deals with callus of a tobacco plant. Conditions: cited from earlier work.
The test system of data set [2] is calluses of a Russell prairie gentian. Particulars: medium containing glutathione; cited from earlier work.
For the next data set, the system named is calluses of a rice plant. Conditions: medium containing glutathione; cited from earlier work.
In data set [3] the test system is Eucalyptus globulus elite tree. Particulars: in the presence of auxin; Sotelo and Monza, Agrociencia (2007); cited from earlier work.

Consider `CCCCS(=N)(=O)CCC(N)C(=O)O` (centres unmarked) [buthionine sulfoximine (BSO), buthionine sulfoximine, reference compound], for which, in data set [1] (addition of BSO), the “number of differentiation of adventitious buds per callus” value is reported as “remarkably increases”.

As for `N[C@@H](CCC(=O)N[C@@H](CS)C(=O)NCC(=O)O)C(=O)O` [glutathione], the “forming an adventitious bud from callus” value in data set [1] (addition of glutathione of 1 mM) was “inhibits”. The redifferentiation of callus (in data set [2]; in the data set with calluses of a rice plant) was “promotes redifferentiation” in each case.

auxin: the rooting rate in data set [3] is given as no more than 25%.
